Our source for the IC50 values is patent US11952364B2, “TRK inhibitors useful as anticancer drugs” (TYLIGAND BIOSCIENCE (SHANGHAI) LIMITED, priority 2018, dated 2024).

Read-outs that look alike come from different tables or passages of the source.

One experiment concerns KM12 cells. In words: Proliferation of KM12 cells (CellTiter-Glo). In kind it is cell-based, human. To be noted: read-out: KM-12, IC50. From the text: KM12 is a human colon cancer cell line in which NTRK1 is highly expressed, and gene fusion occurs with TPM3 to form TPM3-NTRK1. • [Test method]: Promega's CellTiter-Glo® Luminescent Cell Viability Assay kit was used to evaluate the inhibitory activity of the compounds on the proliferation of KM12 cells. • [Instrument]: Spectramax M3 multifunctional microplate reader from Molecular Devices. • [Test materials]: KM12 cell line (ATCC, item number CRL-12496), 96-well transparent flat-bottomed black-walled cell culture plate (Corning, item number #3603), RPMI-1640 media (GE, cat #SH30027.01), Fetal Bovine Serum FBS (Thermo Fisher, cat #10099-141), CellTiter-Glo® Luminescent Cell Viability Assay Kit (Promega, cat #G7572), PBS (Solarbio, cat #P1020), Trypsin (Thermo Fisher, cat #25200072), DMSO (Sigma, cat #D2650). • [Experimental procedure]: When resuscitating KM12 cells, the freezing tube was quickly shaken in a 37° C. water bath to melt within 1 minute. The thawed cell suspension was mixed uniformly with RPMI1640 medium containing 10% FBS, centrifuged at 1000 rpm for 5 minutes, and the supernatant discarded. 5 mL of complete medium (RPMI1640 medium with 10% FBS) was taken to resuspend the cell pellets, charged into a cell culture flask with a bottom area of 25 cm^2, and incubated in a cell incubator at 37° C., 95% humidity and 5% CO2. Cells were allowed to passage when the cell confluence rate reached about 80%. For cell passage, the old medium was discarded, and the cells were washed twice with PBS, and 0.5 mL trypsin was added to digest the cells. Upon dispersing into single cells and exfoliating from the bottom of the cell culture flask, 4.5 mL of new complete medium was added to terminate the digestion. After pipetting the cell suspension evenly, 1/5 of the cell suspension was kept and added with 4 mL of new complete medium, and after pipetting evenly, the cell flask was placed in the cell incubator for further culturing. Cell plating was performed when the cell confluence rate reached about 80% again. For cell plating, 1/5 of the cell suspension was kept for further culturing as in the cell passage method, and the remaining 4/5 of the cell suspension was placed in a 15 mL centrifuge tube, detected for cell viability by Trypan blue exclusion method to ensure that cell viability was above 90%. A cell suspension with a density of 3.33×10^4 viable cells/mL was prepared with complete medium, and 90 μL of such cell suspension was added to a 96-well cell culture plate to obtain a cell density of 3000 viable cells/mL in the cell culture plate. A control group containing no cells, no compound and only complete medium (i.e. culture medium control) and a control group containing no compound but containing cells (i.e. cell control) were set. The cell plate was placed in a cell incubator overnight.
The 10 mM compound stock solution in DMSO was first serially diluted with DMSO at a dilution factor of 3.16 times, to obtain 9 concentrations, and the 10th concentration was set as DMSO control without compound. Then, PBS was used to dilute the DMSO solutions of compounds of different concentrations, at a dilution factor of 100 times, so that the DMSO concentration in the compound solution of each concentration was 1%. Finally, 10 μL of each of the above solutions was added to the corresponding cell culture plate, so that the initial compound concentration was 10 μM, with the remaining concentrations being successively diluted at a dilution factor of 3.16 times, and the DMSO content in the cell culture plate was 0.1%.
The cell plate was placed in a cell incubator and cultured for 72 hours. For endpoint detection, the CellTiter-Glo reagent was melted, and the cell plate was moved to room temperature to equilibrate for 30 minutes, added with 100 μL of CellTiter-Glo for each well, and shaken on an orbital shaker for 5 minutes to fully lyse the cells. […]
In general terms: Cellular ATP, detected with luciferase, serves as a proxy for viable cell number.

For a further experiment, the system named is MKN45 cells. The experiment is described as follows: Proliferation of MKN45 cells. In kind it is cell-based. Particulars: Homo sapiens, MKN-45; Table 8. How it is done: MKN45 is a human poorly differentiated gastric cancer cell line with high MET expression. Cell proliferation experiments were performed according to literature methods (Zhang, D. et al. Bioorg. Med. Chem. 2013, 21, 6804; Riss, T. L.; Moravec, R. A.; Niles, A. L.; et al. Cell Viability Assays 2013 May 1 [Updated 2016 Jul. 1]. In: Sittampalam, G. S.; Grossman, A.; Brimacombe, K.; et al., editors. Assay Guidance Manual [Internet]. Bethesda (MD): Eli Lilly & Company and the National Center for Advancing Translational Sciences; 2004-. Available from: https://www.ncbi.nlm.nih.gov/books/NBK144065/).

In experiment [1] the test system is Ba/F3 ETV6-NTRK3-G696C cells. In words: Proliferation of Ba/F3 ETV6-NTRK3-G696C cells (CellTiter-Glo). In kind it is cell-based, mouse. Particulars: Mus musculus, BaF3, Table 7-2; separate test; read-out: Ba/F3 ETV6-NTRK3-G696C, IC50. From the text:
Ba/F3 ETV6-NTRK3-G696C is a stable transgenic cell line constructed by KYinno Biotechnology Co., Ltd. on mouse primary B cell Ba/F3 wherein NTRK3 is highly expressed with a mutation of G at position […] to C and fused with ETV6 to form ETV6-NTRK3. • [Test method]: Promega's CellTiter-Glo® Luminescent Cell Viability Assay kit was used to evaluate the inhibitory activity of the compounds on the proliferation of Ba/F3 ETV6-NTRK3-G696C cells. • [Instrument]: Spectramax M3 multifunctional microplate reader from Molecular Devices. • [Test materials]: Ba/F3 ETV6-NTRK3-G696C cell line (constructed by KYinno Biotechnology Co., Ltd. (Beijing)), 96-well transparent flat-bottomed black-walled cell culture plate (Corning, cat #3603), RPMI-1640 media (GE, product number #SH30027.01), fetal bovine serum FBS (Thermo Fisher, cat #10099-141), CellTiter-Glo® Luminescent Cell Viability Assay kit (Promega, cat #G7572), PBS (Solarbio, cat #P1020), DMSO (Sigma, cat #D2650). • [Experimental procedure]: When resuscitating Ba/F3 ETV6-NTRK3-G696C cells, • the freezing tube was quickly shaken in a 37° C. water bath to melt within 1 minute. The thawed cell suspension was mixed uniformly with RPMI1640 medium containing 10% FBS, centrifuged at 1000 rpm for 5 minutes, and the supernatant discarded. 5 mL of complete medium (RPMI1640 medium with 10% FBS) was taken to resuspend the cell pellets, charged into a cell culture flask with a bottom area of 25 cm^2, and incubated in a cell incubator at 37° C., 95% humidity and 5% CO2. Cells were allowed to passage when the number of cells reached about 10^6 cells/mL. For cell passage, the old cell suspension was directly pipetted evenly, 1/5 of the cell suspension was kept, 4 mL of new complete medium was added, after pipetting evenly, the cell flask was placed in the cell incubator for further culturing. Cell plating was performed when the number of cells reached about 10^6 cells/mL again. For cell plating, 1/5 of the cell suspension was kept for further culturing as in the cell passage method, and the remaining 4/5 of the cell suspension was placed in a 15 mL centrifuge tube, detected for cell viability by Trypan blue exclusion method to ensure that cell viability was above 90%. A cell suspension with a density of 5.56×10^4 viable cells/mL was prepared with complete medium, and 90 μL of such cell suspension was added to a 96-well cell culture plate to obtain the cell density of 5000 viable cells/mL in the cell culture plate. A control group containing no cells, no compound and only complete medium (i.e. culture medium control) and a control group containing no compound but containing cells (i.e. cell control) were set. The cell plate was placed in a cell incubator overnight. The 10 mM compound stock solution in DMSO was first serially diluted with DMSO at a dilution factor of 3.16 times, to obtain 9 concentrations, and the 10th concentration was set as DMSO control without compound. Then, PBS was used to dilute the DMSO solutions of compounds of different concentrations, at a dilution factor of 100 times, so that the DMSO concentration in the compound solution of each concentration was 1%. Finally, 10 μL of each of the above solutions was added to the corresponding cell culture plate, so that the initial compound concentration was 10 μM, with the remaining concentrations being successively diluted at a dilution factor of 3.16 times, and the DMSO content in the cell culture plate was 0.1%. The cell plate was placed in a cell incubator and cultured for 72 hours. For endpoint detection, the CellTiter-Glo reagent was melted, and the cell plate was moved to room temperature to equilibrate for 30 minutes, added with 100 μL of CellTiter-Glo for each well, and shaken on an orbital shaker for 5 minutes to fully lyse the cells. […]

The mark [2] stands for this setting: Homo sapiens, KM12, Table 1-2, separate test.

Take `N.N.[Cl][Pt][Cl]` [Cisplatin, reference compound]: the IC50 in the experiment with KM12 cells (Table 1, 72 hours) was 27300 nM.
Regarding `Cn1ncc2cc(Oc3ccc(NC(=O)c4ccc(OCC(F)(F)F)n(-c5ccc(F)cc5)c4=O)cc3F)c(-c3cn[nH]c3)cc21` [Example 17, N-(3-fluoro-4-(1-methyl-6-(1H-pyrazol-4-yl)-1H-indazol-5-yloxy)phenyl)-1-(4-fluorophenyl)-6-(2,2,2-trifluoroethoxy)-2-oxo-1,2-dihydropyidine-3-carboxamide], the IC50 was 15 nM in the experiment with MKN45 cells, 19 nM in the experiment with KM12 cells (setting [2]) and 3.7 nM in experiment [1].
For the compound `CCn1ncc2cc(Oc3ccc(NC(=O)c4ccc(OC5CC5)n(-c5ccc(F)cc5)c4=O)cc3F)c(-c3cn[nH]c3)cc21` [Example 25, N-(3-fluoro-4-(1-ethyl-6-(1H-pyrazol-4-yl)-1H-indazol-5-yloxy)phenyl)-1-(4-fluorophenyl)-6-cyclopropoxy-2-oxo-1,2-dihydropyridine-3-carboxamide], the IC50 in the experiment with KM12 cells (setting [2]) is 29 nM; in experiment [1] it was 6.3 nM.
In the case of `CCn1ncc2cc(Oc3ccc(NC(=O)c4ccc(OCC(F)(F)F)n(-c5ccc(F)cc5)c4=O)cc3F)c(-c3cn[nH]c3)cc21` [Example 27, N-(3-fluoro-4-(1-ethyl-6-(1H-pyrazol-4-yl)-1H-indazol-5-yloxy)phenyl)-1-(4-fluorophenyl)-6-(2,2,2-trifluoroethoxy)-2-oxo-1,2-dihydropyidine-3-carboxamide], the IC50 in experiment [1] was determined as 3 nM.
On to `CN1CCN(c2ccc(C(=O)Nc3n[nH]c4ccc(Cc5cc(F)cc(F)c5)cc34)c(NC3CCOCC3)c2)CC1` [RXDX-101, reference compound], for which, in the experiment on KM12 cells (Homo sapiens, KM12, 72 h, Table 1, 72 hours), the IC50 worked out at 5.1 nM.
